# According to patent US20100331298A1, “Carboxamide Compounds and Their Use” (CytoPathfinder, Inc., priority 2007, published 2010):
# Where a name gives a salt, the structure may show the parent alone.
# Target: T1, CCR2b (Homo sapiens, UniProt P41597)
# T1 construct: host or cells: AequoScreen CCR2b cells
# T1 sequence (P41597 1-360 isoform P41597-2): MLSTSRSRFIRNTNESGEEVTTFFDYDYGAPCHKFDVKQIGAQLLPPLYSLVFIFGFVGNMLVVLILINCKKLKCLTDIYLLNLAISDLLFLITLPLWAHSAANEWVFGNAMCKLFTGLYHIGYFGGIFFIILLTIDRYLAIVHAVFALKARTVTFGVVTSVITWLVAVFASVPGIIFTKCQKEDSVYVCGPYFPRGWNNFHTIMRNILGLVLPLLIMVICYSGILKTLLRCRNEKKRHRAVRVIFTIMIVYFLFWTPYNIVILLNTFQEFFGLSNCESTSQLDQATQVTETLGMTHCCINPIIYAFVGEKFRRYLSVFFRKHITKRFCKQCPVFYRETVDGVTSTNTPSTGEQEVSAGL
# Assay: AequoScreen assay, Ca++ flux (antagonist mode against reference agonist MCP-1)
# Format: cell-based
# Conditions: AequoScreen CCR2b (FAST-060A) cells; inhibition of reference agonist MCP-1 at its EC80
# Experimental: The biological activity of the compounds described herein can be evaluated using assays known in the art, such as the AequoScreen™ assay.
# AequoScreen™ CCR2b (FAST-060A) cells grown to mid-log phase in culture media without antibiotics are detached with PBS-EDTA, centrifuged and resuspended in assay buffer (DMEM/HAM's F12 with HEPES, without phenol red+0.1% BSA protease free) at a concentration of 1×10^6 cells/mL. Cells are incubated at room temperature for at least 4 hours with coelenterazine h. Dose response curves are performed before testing. The reference agonist is MCP-1.
# For agonist testing, 50 μL of cell suspension is mixed with 50 μL of test compound in a 96-well plate. The resulting emission of light is recorded using a Hamamatsu Functional Drug Screening System 6000 (FDSS 6000).
# Following an incubation of 15 minutes after the first injection, 100 μL of the resulting cell suspension containing the test compound is mixed with 100 μL of the reference agonist in the 96 well test plate. The resulting emission of light is recorded using the same luminometer as for agonist testing.
# To standardize the emission of recorded light (determination of the “100% signal”) across plates and across different experiments, some of the wells contained 100 μM digitonin, a saturating concentration of ATP (20 μM) and a concentration of reference agonist equivalent to the EC50 obtained during test validation.
# Agonist activity of a test compound can be expressed as a percentage of the activity of the reference agonist at its EC100 concentration. Antagonist activity of a test compound can be expressed as a percentage of the inhibition of reference agonist activity at its EC80) concentration.
row,Compound,IC50 [µM]
1,"O=C(NCc1cc(C(F)(F)F)cc(C(F)(F)F)c1)C1(CC2CC2)CCN(Cc2ccc3[nH]ncc3c2)C1 (stereo not drawn) [Example 21, 1-((1H-Indazol-5-yl)methyl)-N-(3,5-bis(trifluoromethyl)benzyl)-3-(cyclopro-pylmethyl)pyrrolidine-3-carboxamide dihydrochloride]",< 0.2
2,"Cn1c(=O)ccc2ccc(CN3CCC(CC4CC4)(C(=O)NCc4cc(C(F)(F)F)cc(C(F)(F)F)c4)CC3)cc21 [Example 1, N-(3,5-Bis(trifluoromethyl)benzyl)-4-(cyclopropylmethyl)-1-((1-methyl-2-oxo-1,2-dihydroquinolin-7-yl)methyl)piperidine-4-carboxamide]",< 0.2
3,"O=C(NCc1cc(C(F)(F)F)cc(C(F)(F)F)c1)C1(CC2CC2)CCN(Cc2ccc3ccc(=O)[nH]c3c2)CC1 [Example 11, N-(3,5-Bis(trifluoromethyl)benzyl)-4-(cyclopropylmethyl)-1-((2-oxo-1,2-dihydroquinolin-7-yl)methyl)piperidine-4-carboxamide]",> 1
4,"Cn1c(=O)oc2ccc(CN3CCC(CC4CC4)(C(=O)NCc4cc(C#N)cc(C(F)(F)F)c4)C3)cc21 (stereo not drawn) [Example 24, N-(3-Cyano-5-(trifluoromethyl)benzyl)-3-(cyclopropylmethyl)-1-((3-methyl-2-oxo-2,3-dihydrobenzo[d]oxazol-5-yl)methyl)pyrrolidine-3-carboxamide HCl salt]",< 0.2
5,"O=C(NCc1cc(C(F)(F)F)cc(C(F)(F)F)c1)C1(CC2CC2)CCN(Cc2cccc3c(=O)[nH]ccc23)CC1 [Example 9, N-(3,5-Bis(trifluoromethyl)benzyl)-4-(cyclopropylmethyl)-1-((1-oxo-1,2-dihydroisoquinolin-5-yl)methyl)piperidine-4-carboxamide]",0.2 to 1
6,"O=C(NCc1cc(C(F)(F)F)cc(C(F)(F)F)c1)C1(CC2CC2)CCN(Cc2ccc3cc[nH]c(=O)c3c2)CC1 [Example 8, N-(3,5-Bis(trifluoromethyl)benzyl)-4-(cyclopropylmethyl)-1-((1-oxo-1,2-dihydroisoquinolin-7-yl)methyl)piperidine-4-carboxamide]",> 1
7,"O=C1COc2ccc(CCN3CCC(CC4CC4)(C(=O)NCc4cc(C(F)(F)F)cc(C(F)(F)F)c4)CC3)cc2N1 [Example 10, N-(3,5-Bis(trifluoromethyl)benzyl)-4-(cyclopropylmethyl)-1-(2-(3-oxo-3,4-dihydro-2H-benzo[b][1,4]oxazin-6-yl)ethyl)piperidine-4-carboxamide]",> 1
8,"O=C1COc2ccc(CN3CCC(CC4CC4)(C(=O)NCc4cc(C(F)(F)F)cc(C(F)(F)F)c4)CC3)cc2N1 [Example 6, N-(3,5-Bis(trifluoromethyl)benzyl)-4-(cyclopropylmethyl)-1-((3-oxo-3,4-dihydro-2H-benzo[b][1,4]oxazin-6-yl)methyl)piperidine-4-carboxamide]",> 1
9,"CC(C)CC1(C(=O)NCc2cc(C(F)(F)F)cc(C(F)(F)F)c2)CCN(Cc2ccc3c(c2)OCCN3C)CC1 [Example 17, N-(3,5-Bis(trifluoromethyl)benzyl)-4-isobutyl-1-((4-methyl-3,4-dihydro-2H-benzo[b][1,4]oxazin-7-yl)methyl)piperidine-4-carboxamide]",> 1
10,"O=C1COc2ccc(CN3CCC(CC4CC4)(C(=O)NCc4cc(C(F)(F)F)cc(C(F)(F)F)c4)C3)cc2N1 (stereo not drawn) [Example 22, N-(3,5-Bis(trifluoromethyl)benzyl)-3-(cyclopropylmethyl)-1-((3-oxo-3,4-dihydro-2H-benzo[b][1,4]oxazin-6-yl)methyl)pyrrolidine-3-carboxamide]",0.2 to 1
11,"CN1C(=O)COc2ccc(CN3CCC(CC4CC4)(C(=O)NCc4cc(C(F)(F)F)cc(C(F)(F)F)c4)CC3)cc21 [Example 27, N-(3,5-Bis(trifluoromethyl)benzyl)-4-(cyclopropylmethyl)-1-((4-methyl-3-oxo-3,4-dihydro-2H-benzo[b][1,4]oxazin-6-yl)methyl)piperidine-4-carboxamide]",0.2 to 1
12,"O=C(NCc1cc(C(F)(F)F)cc(C(F)(F)F)c1)C1(CC2CC2)CCN(Cc2ccc3nc[nH]c3c2)CC1 [Example 19, 1-((1H-Benzo[d]imidazol-6-yl)methyl)-N-(3,5-bis(trifluoromethyl)benzyl)-4-(cyclopropylmethyl)piperidine-4-carboxamide]",> 1
13,"CC(C)CC1(C(=O)NCc2cc(C(F)(F)F)cc(C(F)(F)F)c2)CCN(Cc2ccc3c(c2)nnn3C)CC1 [Example 18, N-(3,5-Bis(trifluoromethyl)benzyl)-4-isobutyl-1-((1-methyl-1H-benzo[d][1,2,3]triazol-5-yl)methyl)piperidine-4-carboxamide]",> 1
14,"COCC1(C(=O)N2CCN(c3cc(C(F)(F)F)ccn3)CC2)CCN(Cc2ccc3oc(=O)n(C)c3c2)C1 (stereo not drawn) [Example 29, 5-((3-(Methoxymethyl)-3-(4-(4-(trifluoromethyl)pyridin-2-yl)piperazine-1-carbonyl)pyrrolidin-1-yl)methyl)-3-methylbenzo[d]oxazol-2(3H)-one]",0.2 to 1
15,"Cn1c(=O)ccc2ccc(CN3CCC(CC4CC4)(C(=O)NCc4cc(C#N)cc(C(F)(F)F)c4)C3)cc21 (stereo not drawn) [Example 23, N-(3-Cyano-5-(trifluoromethyl)benzyl)-3-(cyclopropylmethyl)-1-((1-methyl-2-oxo-1,2-dihydroquinolin-7-yl)methyl)pyrrolidine-3-carboxamide TFA salt]",< 0.2
16,"N-(3,5-Bis(trifluoromethyl)benzyl)-4-(cyclopropylmethyl)-1-((3-methyl-2-oxo-2,3-dihydrobenzo[d]thiazol-6-yl)methyl)piperidine-4-carboxamide TFA salt [Example 25]",< 0.2
17,"COCC1(C(=O)N2CC(c3cc(C(F)(F)F)ccn3)C2)CCN(Cc2ccc3oc(=O)n(C)c3c2)C1 (stereo not drawn) [Example 28, 5-((3-(Methoxymethyl)-3-(3-(4-(trifluoromethyl)pyridin-2-yl)azetidine-1-carbonyl)pyrrolidin-1-yl)methyl)-3-methylbenzo[d]oxazol-2(3H)-one]",0.2 to 1
18,"Cn1c(=O)ccc2ccc(CN3CCC(CC4CC4)(C(=O)NCc4cc(C(F)(F)F)cc(C(F)(F)F)c4)C3)cc21 (stereo not drawn) [Example 20, N-(3,5-Bis(trifluoromethyl)benzyl)-3-(cyclopropylmethyl)-1-((1-methyl-2-oxo-1,2-dihydroquinolin-7-yl)methyl)pyrrolidine-3-carboxamide]",< 0.2
19,"Cn1c(=O)oc2ccc(CN3CCC(CC4CC4)(C(=O)NCc4cc(C(F)(F)F)cc(C(F)(F)F)c4)CC3)cc21 [Example 26, N-(3,5-Bis(trifluoromethyl)benzyl)-4-(cyclopropylmethyl)-1-((3-methyl-2-oxo-2,3-dihydrobenzo[d]oxazol-5-yl)methyl)piperidine-4-carboxamide]",0.2 to 1
20,"O=C1COc2ccc(C(O)CN3CCC(CC4CC4)(C(=O)NCc4cc(C(F)(F)F)cc(C(F)(F)F)c4)CC3)cc2N1 (stereo not drawn) [Example 5, N-(3,5-Bis(trifluoromethyl)benzyl)-4-(cyclopropylmethyl)-1-(2-hydroxy-2-(3-oxo-3,4-dihydro-2H-benzo[b][1,4]oxazin-6-yl)ethyl)piperidine-4-carboxamide]",> 1
21,"Cn1c(=O)ccc2ccc(CN3CCC(C(=O)NCc4cc(C(F)(F)F)cc(C(F)(F)F)c4)(C4CC4)CC3)cc21 [Example 3, N-(3,5-Bis(trifluoromethyl)benzyl)-4-cyclopropyl-1-((1-methyl-2-oxo-1,2-dihydroquinolin-7-yl)methyl)piperidine-4-carboxamide]",> 1
